Measurements: patent US20080206253A1, “Method For Preventing or Treating Pain in a Mammal” (priority 2005, published 2008)
“Also recorded” adds a separate entry of the source. Marks after values point to notes of the source that are not given here.

What was measured:
Assay type in all cases: in vivo, rat
[1] = test system: rats, formalin-injected hind paw; test: Formalin-induced flinching (paw formalin test)
Experimental: In recent work it was shown that inhibition of spinal p38 MAP kinase attenuated formalin-induced flinching. Svensson et al., J Neurochem 86: 1534-1544, 2003b. To examine the contribution of p38α and p38β in this experimental model of hyperalgesia, animals were injected with p38α, p38β AS or MS IT for five days. These animals were then examined on the formalin test. Unilateral intraplantar formalin solution (2.5%) caused a biphasic flinching pattern where the first 9 minutes are referred to as phase I and the following 50 minutes (min 10-60) as phase II. Yaksh et al., J Neurosci 21: 5847-5853, 2001a. The phase II flinching is considered to represent afferent input initiated spinal facilitation. Dickenson and Sullivan, Neurosci Lett 83: 207-211, 1987; Puig and Sorkin, Pain 64: 345-355, 1996. […] To further confirm the role of p38 to injury-induced pain behavior, a pharmacological inhibitor was also studied: SB203580, a p38α/β non-selective inhibitor.
To quantify formalin induced flinching, an automated sensing system was employed. Yaksh et al., J Appl Physiol 90: 2386-2402, 2001b. Briefly, a soft metal band was placed on the hind paw of the animal being tested. Animals were allowed to acclimate in individual Plexiglas chambers for 30 min before being moved to a test chamber. Just before the animals were placed into the test chamber, they were briefly restrained in a cloth towel, and 2.5% formalin (50 μl) was injected into the dorsal side of the banded paw. Nociceptive behavior was quantified by automatically counting the incidences of spontaneous flinching or shaking of the injected paw. The flinches were counted for 1-min periods for 60 minutes and the flinch data are expressed as number of flinches per min and total flinches observed during phase I (0-9 min) and phase II (10-60 min).

p38β = test: Western blot of spinal p38β protein expression after IT antisense; conditions: for p38β protein expression, % Expression Compared to Missense: spinal cord at day six, MS=100%, mean ±SEM n=6; for spinal p38β protein expression compared to missense (MS)-treated animals (in words): five days of IT bolus injections, p38β AS 10-20 μg (10 and 20 μg: P<0.05), p38α AS 10-30 μg
Description: (§1) It has previously been shown that inhibition of spinal p38 MAP kinase prevents both inflammation-evoked hyperalgesia and nerve injury-induced allodynia. Ji et al., Neuron 36: 57-68, 2002; Schafers et al., J Neurosci 23: 2517-2521, 2003; Svensson et al., Neuroreport 14: 1153-1157, 2003a.; Svensson et al., J Neurochem 86: 1534-1544, 2003b. It still remains to be determined whether only one or both of the p38 isoforms, that are present in the spinal cord, are involved in modulation of spinal nociceptive processing. Since there is no specific p38 isoform inhibitors available, rats were treated intrathecally with isoform specific antisense oligonucleotides (AS) in order to knock down p38α and p38β respectively. […] There were no differences between the AS-, MS- or vehicle-treated groups in terms of weight gain or motor function. The specificity of the effects of these two antisense oligonucleotides was also examined. Western blot membranes were stripped and re-incubated the with the other p38 isoform antibody. […] In Table 1, antisense was given IT once daily for 5 days and protein expression assayed in spinal chord at day six compared to protein level detected in missense treated animals (MS=100%). Each group represents mean ±SEM, n=6 per group. (*) represents P<0.05 as compared to the missense group.
(§2) Antisense oligonucleotides. Three oligonucleotides (a kind gift from ISIS Pharmaceuticals Inc.) with lengths of 20 nucleotides were employed in the study: ISIS 101757 (p38α AS) […], beginning at position 1081 in the rat p38α mRNA; ISIS 107211 (p38βAS) […], beginning at position 439 in the rat p38β mRNA; and ISIS141923 (an universe MS control) […]. These oligonucleotides were synthesized as 2′-methoxyethyl (MOE) phosphorothioate chimeric oligonucleotides in which the first and last five bases contained MOE modifications with a uniform phosphorothioate backbone. Butler et al., Diabetes 51: 1028-1034, 2002. The oligonucleotides were dissolved in artificial cerebrospinal fluid (ACSF) immediately prior to intrathecal administration. The ACSF contained (mM) 151.1 Na+, 2.6 K+, 0.9 Mg2+, 1.3 Ca 2+, 122.7 Cl−, 21.0 HCO3, 2.5 HPO4 and was bubbled with 95% O2/5% CO2 before use to adjust the final pH to 7.2. AS and MS (10-30 μg) was administrated in 10 μl ACSF followed by 10 μl saline daily for five days and behavioral experiments and spinal tissue collection performed on day six.
(§3) Western blot. Prior to sacrifice, rats were deeply anesthetized and after decapitation the spinal cords were ejected from the vertebral column by a saline-filled syringe. The lumbar part of the spinal cord was immediately homogenized in extraction buffer (50 mM Tris buffer, pH 8.0, containing 0.5% Triton X-100, 150 mM NaCl, 1 mM EDTA, phosphatase and protease inhibitors) by sonication. The tissue extracts were subjected to denaturing NuPAGE 4-12% Bis-Tris gel electrophoresis and then transferred to nitrocellulose membranes (Micronic Separation Inc. Westborough, Mass.). After blocking nonspecific binding sites with 5% low-fat milk in PBS containing 0.1% Tween 20 (PBS-T) for 1 hour in room temperature, the membranes were incubated with antibodies overnight at 4° C. After washing, the antibody-protein complexes were probed with appropriate secondary antibodies labeled with horseradish peroxidase for 1 hr at room temperature and detected with chemiluminescent reagents (SuperSignal, Pierce, Rockford, Ill.). […]

p38α = test: Western blot of spinal p38α protein expression after IT antisense; conditions: for p38α protein expression, % Expression Compared to Missense: spinal cord at day six, MS=100%, mean ±SEM n=6; for spinal p38α protein expression compared to missense (MS)-treated animals (in words): five days of IT bolus injections, p38α AS 10-30 μg (30 μg: P<0.05), p38β AS 10-20 μg
Description: as §1, §2, §3

[2] = IT antisense 30 μg once daily for 5 days
[3] = IT antisense 10 μg once daily for 5 days
[4] = IT antisense 20 μg once daily for 5 days

Substance | total number of flinches during phase I or II ([1]; IT oligonucleotide daily for 5 days, 2.5% formalin into paw, compared with IT saline or MS) | p38β protein expression, % Expression Compared to Missense (p38β; [2]) [%] | spinal p38β protein expression compared to missense (MS)-treated animals (in words) (p38β) | p38α protein expression, % Expression Compared to Missense (p38α; [3]) [%] | p38α protein expression, % Expression Compared to Missense (p38α; [2]) | spinal p38α protein expression compared to missense (MS)-treated animals (in words) (p38α) | number of flinches during phase two ([1]; IT p38β AS (3-20 μg) daily for 5 days, compared to saline and MS treated animals, P<0.05 (10 and 20 μg)) | p38β protein expression, % Expression Compared to Missense (p38β; [3]) | p38β protein expression, % Expression Compared to Missense (p38β; [4]) | p38α protein expression, % Expression Compared to Missense (p38α; [4])
p38α AS: 20-nucleotide 2′-MOE phosphorothioate chimeric antisense AGGTGCTCAGGACTCCATTT, beginning at position 1081 in the rat p38α mRNA (all phosphorothioate, sugars by position and methylation of C not given here; 2'-MOE chimeric (gapmer) antisense) | did not differ; also recorded: no statistical difference | 111 ± 15 | neither p38α AS nor p38β AS produced a reduction of the protein expression of the other isoform | 59 ± 26 | 39 ± 8* % | significant down-regulation; also recorded: knocked down |  |  |  | 
p38β AS: 20-nucleotide 2′-MOE phosphorothioate chimeric antisense GTATGTCCTCCTCGCGTGGA, beginning at position 439 in the rat p38β mRNA (all phosphorothioate, sugars by position and methylation of C not given here; 2'-MOE chimeric (gapmer) antisense) |  |  | significant down-regulation; also recorded: knocked down |  |  | somewhat increased | statistical significant reduction; also recorded: statistically different | 45 ± 9* % | 39 ± 12* % | 205 ± 65* %
